We go through four molecules from publication PMC8868346, “Novel Series of Dual NRF2 Inducers and Selective MAO-B Inhibitors for the Treatment of Parkinson’s Disease” (Antioxidants, 2022).

Read-outs that look alike come from different tables or passages of the source. A value given as a limit tells only on which side of the number the result lay.

The target of data set [1] is MAO-B. Particulars: cited from earlier work.
For a further data set, the system named is AREc32. The procedure: AREc32 cells, shared by CR Wolf, were grown in Dulbecco’s modified Eagle medium (DMEM) with GlutaMAX (Gibco, Invitrogen, Madrid, Spain), supplemented with 10% (v/v) filtrated fetal bovine serum (FBS; Gibco, Invitrogen, Madrid, Spain), 1% of antibiotics penicillin-streptomycin, and geneticin (0.8 mg/mL G418; Gibco, Invitrogen, Madrid, Spain). […] They were recovered by centrifugation at 800 rpm for 10 min. Cells were used from the third to twelfth passage.
(§1) Basal absorbance was set to 100% and results were normalized to basal conditions.
(§2) Cytotoxicity. LD50 values in several cell cultures employed
(§3) Table S2. Cytotoxicity elicited by 10-18 compounds in SH-SY5Y, AREc32 and mixed pr imary glial cultures. Viability was measured as MTT reduction in presence of increasing concentrations of der ivatives. LD50 values were calcula ted from dose-response curves. Data are expr essed as mean ± SEM of at least 3 independent experiments.
(§4) 1.3. PAMPA control compounds (BBB permeability)
(§5) Table S3. Pr ediction of the BBB passive permeability of control compounds

Data set [2] has as its system SH-SY5Y cells. As to the kind of experiment: Neuroprotection in SH-SY5Y against 6-hydroxydopamine (MTT). Format: cell-based, human. The settings on record: 6-OHDA 100 µM; compound 0.1 µM, 24 h pre- and 24 h co-incubation. The method, then: (§6) Cells were seeded at a density of 60,000 cells/well in 96-well transparent plates for 24 h. Then cells were pre-incubated with the corresponding compound at 0.1 μM. After 24 h, the medium was removed and replaced with 1% (v/v) FBS media containing the corresponding compound at 0.1 µM and the selected toxic stimuli, namely a mixture of rotenone and oligomycin A (R/O; 30/10 μM, respectively; Sigma–Aldrich, Spain) or 6-hydroxydopamine (100 µM; Sigma–Aldrich, Spain). […].

The subject of a further data set is rat striatal slices. As to the kind of experiment: Rat striatal slices exposed to rotenone: ROS production. Particulars: compound 10 µM, rotenone 10 µM, 4 h. Format: cell-based. The method, then:
Three- to four-month-old Sprague–Dawley rats were decapitated, the brain was removed, and the two brain hemispheres were separated. Each hemisphere was then cut into 300-µm coronal slices using a McIlwain Tissue Chopper (Cavey Laboratory Engineering, Surrey, UK) and separated in a previously oxygenated (95% O2 and 5% CO2) ice-cold Krebs’s dissection buffer (120 mM of NaCl; 2 mM of KCl; 26 mM of NaHCO3; 1.18 mM of KH2PO4; 10 mM of MgSO4; 0.5 mM of CaCl2; 11 mM of glucose; and 200 mM sucrose at pH 7.4) using a Leica SE6 microscope (Leica, Madrid, Spain). Striatum-containing slices were selected and immediately incubated for stabilization in dissection buffer without sucrose, bubbled with 95% O2 and 5% CO2 for 45 min at 34 °C, allowing slices to recover from slicing injury. […] Finally, cell death and the ROS production were measured.
ROS quantification was performed using the fluorescent probe 2,7′-dichlorodihydrofluorescein diacetate (H2DCFDA, λEx/Em = 495/529 nm; Thermo Fisher, Madrid, Spain). Cell death quantification was performed using the fluorescent probe propidium iodide (PI, λEx/Em = 535/617 nm; Thermo Fisher, Madrid, Spain). […] Fluorescence from striatum slices was then recorded for H2DCFDA (λEx/Em = 495/529 nm), PI (λEx/Em = 535/617 nm), and Hoechst (λEx/Em = 350/461 nm), in an inverted Nikon Eclipse T2000-U microscope (Nikon, Tokyo, Japan). […]

For data set [3], the system named is Mixed primary glial cultures. Kind of data set: Cytotoxicity in mixed primary glial cultures (MTT). Particulars: Sprague-Dawley, rat. The procedure: Mixed primary glial cultures were obtained from cerebral cortex of 2–5-day-old Sprague–Dawley rats. Blood vessels and meninges were first removed in Hank’s balanced salt solution (HBSS) and then forebrains were dissociated in DMEM/F12 medium. After mechanical dissociation, filtering, and centrifugation at 800 rpm for 10 min, cells were plated at a density of 30,000 cells/well in DMEM/F12 medium with 20% (v/v) FBS and 1% penicillin/streptomycin (10,000 units). […] After 5 days, medium was substituted by DMEM/F12 medium with 10% (v/v) FBS. Cells were cultured for 7–10 days before treatment.
as §1, §2, §3, §4, §5

The test system of the next data set is SH-SY5Y. The settings on record: human. The procedure: They were recovered by centrifugation at 800 rpm for 10 min. Cells from the third to twelfth passage were seeded at a density of 80,000 cells/well in 96-well plates for the neuroprotection studies.
as §1, §2, §3, §4, §5

In the next data set the test system is IL-1β. Kind of data set: IL-1β levels by ELISA in LPS stimulated primary mixed glial cultures. Particulars: compound 10 μM; LPS 1 µg/mL 18 h. It is filed as cell-based, rat. The method, then: Cells were cultured for 7–10 days before treatment.
Primary glial cells were pre-treated with compounds at the desired concentration for 24 h. Then, treatments were removed and glial cells were incubated with lipopolysaccharide (LPS, 1 μg/mL; Sigma–Aldrich, Spain) in the presence of each compound at the desired concentration for 18 h. Nitrite production was then assessed by modified Griess assay. Briefly, 150 µL of each sample was mixed with 75 µL of 4,4′-diamino-diphenylsulfone (Dapsone) and 75 µL of N-(1-naphthyl)ethylenediamine (Neda). The mixture was incubated at room temperature for 5 min. […] Data were normalized to basal conditions, setting this value as 100% of nitrite production. EC50 values were calculated from dose–response curves obtained from representing percentage of nitrites reduction vs. compound concentration.
Supernatants obtained from mixed primary glial cell cultures were used to determine IL-1β levels by quantitative ELISA kits (Preprotech, R&D Systems-bioNova, Madrid, Spain) following the manufacturer’s instructions. Commercial solution of IL-1β was used to generate a standard curve for sample quantification. Absorbance was measured in a microplate reader SPECTROstar Nano (BMG Labtech) at 405 with 650 nm correction.
On the technique in general: An ELISA detects its analyte on a solid surface through an enzyme-linked reagent.

The subject of another data set is NRF2. Kind of data set: NRF2 induction, luciferase activity in AREc32 reporter cells. It is filed as cell-based, human. Particulars: Homo sapiens; AREc32 cells, 24 h; concentration required to double luciferase activity compared to basal; read-out: CD (µM) NRF2 Induction. The method, then: Cells were used from the third to twelfth passage.
AREc32 cells were stably transfected with the plasmid pGL-8xARE that implements 8 copies of the antioxidant response element (ARE) sequences followed by luciferase reporter gen. Therefore, NRF2 induction can be related to the activation of ARE sequences by measuring luciferase activity in terms of luminescence production. For NRF2 induction experiments, cells were plated in 96 white flat bottom well plates (20,000 cells/well). After 24 h, cells were incubated with selected compounds at the desired concentrations in duplicates for 24 h. The Luciferase Assay System (Promega E1500) was used according to provider protocol and luminescence was quantified in an Orion II microplate luminometer (Berthold, Germany). Fold induction of luciferase activity was normalized to basal conditions. Data were expressed as CD values, which means the concentration needed to duplicate the luciferase activity compared to basal conditions. CD values were calculated from dose–response curves fitted by non-linear regression for each compound after logarithmic transformation of the data using GraphPad Prism 8.0 software.

Data set [4] concerns SH-SY5Y cells. As to the kind of experiment: Neuroprotection in SH-SY5Y against rotenone/oligomycin A (MTT). The settings on record: compound 0.1 µM, 24 h pre- and 24 h co-incubation. It is filed as cell-based, human. The method, then: as §6
For data set [5], the system named is nitrite production in mixed primary glial cultures. The settings on record: read-out: EC50 Nitrite Reduction; positive control; cited from earlier work.
Data set [6] is described as follows: Oxygen radical absorbance capacity (ORAC) assay. Particulars: Trolox equivalents, AAPH, fluorescein. The procedure: The ORAC test was performed to evaluate the oxygen free radical scavenger capacity of the compounds. […] Compounds at desired concentrations (0.03, 0.1, 0.3, 1, 3, and 10 µM) were diluted in phosphate-buffered saline (PBS; 10 mM, pH 7.4) at 37 °C and placed in a 96 black flat bottom well plate. […] A fluorescence measurement was done first to determine the basal signal. Then, 25 µL of 2, 2′-azobis-amidinopropane dihydrochloride (AAPH) (12 mM final concentration) was quickly added. All samples were measured in duplicates in three different experiments. […] Results were expressed in terms of Trolox equivalents (T.eq.), obtained by plotting net AUC versus compound concentration, then performing linear regression and normalizing slopes of the compounds considering Trolox as reference.

The test system of another data set is MAO-A. The settings on record: read-out: IC50 for MAO-A; cited from earlier work.
Data set [7] deals with blood-brain barrier (passive diffusion). As to the kind of experiment: Blood–brain barrier permeation assay (PAMPA). The settings on record: PAMPA, pH 7.4. Background: The PAMPA barrier holds no transporters, so it reflects passive diffusion.
Data set [8] is described as follows: Blood–brain barrier permeation assay (PAMPA). Particulars: BBB permeability class from Pe.
Data set [9] addresses T1, MAO-B (Homo sapiens, UniProt P27338).
T1 construct: purchased Sigma–Aldrich
T1 sequence (P27338 1-520): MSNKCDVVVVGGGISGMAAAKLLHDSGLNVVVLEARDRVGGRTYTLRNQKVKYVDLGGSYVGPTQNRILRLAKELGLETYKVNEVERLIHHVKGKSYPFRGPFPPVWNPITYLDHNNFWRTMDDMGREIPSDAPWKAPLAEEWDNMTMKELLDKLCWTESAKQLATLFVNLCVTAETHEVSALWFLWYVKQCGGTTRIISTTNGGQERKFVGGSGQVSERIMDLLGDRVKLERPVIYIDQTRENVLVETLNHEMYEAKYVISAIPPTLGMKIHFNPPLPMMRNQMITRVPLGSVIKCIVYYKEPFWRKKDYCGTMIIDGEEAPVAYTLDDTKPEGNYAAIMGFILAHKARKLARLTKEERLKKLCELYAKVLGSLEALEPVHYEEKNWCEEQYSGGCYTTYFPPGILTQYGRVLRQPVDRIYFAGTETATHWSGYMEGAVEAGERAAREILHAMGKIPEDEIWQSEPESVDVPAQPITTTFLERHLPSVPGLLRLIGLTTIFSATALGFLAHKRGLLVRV
Kind of data set: MAO-B reversibility assay (pre-incubation times). Format: biochemical. Particulars: 0, 15, 30 min pre-incubation at […] IC50.

Data set [10] has as its system MAO-B. The settings on record: read-out: IC50 for MAO-B; cited from earlier work.

Consider `C(=CCc1ccccc1)Cc1ccccc1` [1,4-diphenyl-2-butene], for which, on MAO-B [1], the Ki was 35 µM.
For the molecule `COc1ccc2[nH]cc(CCNC(C)=O)c2c1` [Melatonin, reference compound], the “LD50 (µM) AREc32” value in the data set with AREc32 (human) is listed as above 30 µM. Besides, in the data set with SH-SY5Y cells [2], the “6-OHDA Protection (%)” value is reported as 88.8%. In addition, in the data set on rat striatal slices, the “ROS levels (H2DCFDA), rotenone model” value is recorded as “reduced”. Also, the “LD50 (µM) Mixed primary glial cultures” value in [3] is given as above 30 µM. Moreover, in the data set on SH-SY5Y, the “LD50 (µM) SH-SY5Y” value is above 100 µM. Moreover, in the data set with IL-1β, the “IL-1β Levels % Reduction (10 μM)” value was 31.6 ± 7.00%. The EC50 with NRF2 was above 30 µM. For the same molecule, the “R/O (30/10 µM) Protection (%)” value in the data set with SH-SY5Y cells [4] was determined as 22.3%.
Consider `C[S+]([O-])CCCCN=C=S` (centres unmarked) [Sulforaphane], for which the EC50 in data set [5] is 1.4 ± 0.3 µM.
Turning to `C#CCN[C@@H]1CCc2ccccc21` [Rasagiline, reference compound], the “ORAC (T. eq.)” value is reported as 0.04 ± 0.02 T. eq in data set [6] and “no effect” in data set [6] (listed as rasagiline). For the same molecule, in the data set on AREc32 (MTT reduction), the “LD50 (µM) AREc32” value was above 30 µM. Moreover, the “6-OHDA Protection (%)” value in the data set with SH-SY5Y cells [2] is reported as 77.0%. In addition, the IC50 in the data set with MAO-A is […]; in the data set on MAO-B [10], […]. In addition, in [7], the Papp at 4 h, 100 µM came out at 23.5 ± 4.2 ×10⁻⁶ cm/s. The “PAMPA Prediction” value in [8] was “CNS + (CNS + (high BBB permeability): Pe (10^−6 cm s^−1) > 4.0)”. Moreover, the MAO-B inhibition reversibility entry on MAO-B [9] is on record as “Irreversible”. For the same molecule, the “R/O (30/10 µM) Protection (%)” value in the data set with SH-SY5Y cells [4] was found to be 28.9%.

One may read the Ki as the dissociation constant of the complex between target and ligand, obtained from inhibition or displacement. The term IC50 denotes the concentration at which inhibition is half-maximal. One may read the Papp as a coefficient for how fast a substance crosses the barrier.
